From patent publication US12240855B2, “Pyrrolopyrazole derivative” (DAIICHI SANKYO COMPANY, LIMITED, priority 2019, dated 2025)

Tests used:
[1] = test system: PTDSS2 gene-disrupted (PTDSS2-KO) HCT116 cells; experiment: cells; conditions: Homo sapiens, HCT-116, 72 h, read-out: Test Example 3 PTDSS2-KO HCT116 GI50
Experimental: (§2) McCoy's 5A medium containing 10% bovine serum was used as the culture medium for each cell. […] They were added to each well of 384-well plates at 40 nL/well using an Echo555 (Labcyte Inc.). […] On the day of compound addition (day 0) and 3 days after compound addition (day 3), 10 μL/well of CellTiter-Glo® 2.0 Assay (Promega, #G9242), which is a reagent for ATP measurement, was added to each well, and the amount of luminescence in each well was measured with EnVision. From the amount of luminescence on the day of compound addition (C0) and the amount of luminescence of the compound non-addition group (C3) and compound addition group (T3) after 3 days of culture, cell viability was calculated based on the following formula. Cell viability (%)=[(T3−C0)/(C3−C0)]×100

HCT116 cells = experiment: cells; conditions: Homo sapiens, HCT-116, 72 h, read-out: Test Example 3 HCT116 GI50
Experimental: as §2

[2] = test system: PTDSS2-KO HCT116 cell-subcutaneous transplanted model; experiment: Test Example 4: Antitumor activity on PTDSS2-KO HCT116 cell-subcutaneous transplanted model; format: in vivo, female BALB/c-nu/nu mice; conditions: oral
Excerpt: HCT116 cell-subcutaneous transplanted model PTDSS2-KO HCT116 cells were transplanted to a right subcutaneous axillary portion of female BALB/c-nu/nu mice at a proportion of 1×10^7 cells/head, and when the tumor volume reached 100 to 300 mm^3 (estimated tumor volume (major axis×minor axis×minor axis/2)), mice were divided into groups of 6 or 5 mice each such that there was no difference between groups. The female BALB/c-nu/nu mice were purchased from CHARLES RIVER LABORATORIES JAPAN, INC. The compounds of Examples 58, 57, 53, 30, 42, 32, 34, 33, and 31 were orally administered from the day of grouping in the dosing schedule shown in Table 12 (twice daily, 11 successive days (BID×11), or once daily, 13 successive days (QD×13)). The tumor volume was measured until the next day of completion of the administration (test end date). 0.5% methylcellulose (MC) was administered to the vehicle control group as the vehicle.
TGI %=(1−TVt/TVc)×100 • TGI: Tumor growth suppression rate • TVt: Group mean tumor volume of compound administration group on test end date • TVc: Group mean tumor volume of vehicle control group on test end date

ZR-75-1 cells = experiment: Test Example 6: Cell growth suppression activity 3 (ZR-75-1); format: cell-based; conditions: 144 h; ZR-75-1 cells derived from human breast cancer, 6 days of culture, ATP measurement (CellTiter-Glo 2.0)
Experimental: (§1) ZR-75-1 cells derived from human breast cancer were used. […] ZR-75-1 cells were purchased from ATCC. ZR-75-1 cells were seeded into 96 well plates at 5,000 cells/50 μL/well (day −1). The compound of Example 42 was serially diluted and prepared (10 steps, 20 μM-6 nM) and added to each well of 96 well plates at 50 μL/well. […] Cell viability (%)=[(T6−C0)/(C6−C0)]×100

NCI-N87 cells = experiment: Test Example 5: Cell growth suppression activity 2 (NCI-N87); format: cell-based; conditions: 168 h; NCI-N87 cells derived from human stomach cancer, 7 days of culture, ATP measurement (CellTiter-Glo 2.0)
Experimental: NCI-N87 derived from human stomach cancer was used. […] NCI-N87 cells were purchased from ATCC. NCI-N87 cells were seeded into 96 well plates at 5,000 cells/50 μL/well (day −1). The compound of Example 42 was serially diluted and prepared (10 steps, 20 μM-6 nM) and added to each well of 96 well plates at 50 μL/well. […] Cell viability (%)=[(T7−C0)/(C7−C0)]×100

Jeko-1 cells = experiment: Test Example 7: Cell growth suppression activity 4 (Jeko-1); format: cell-based; conditions: 72 h; Jeko-1 cells derived from human mantle cell lymphoma, 3 days of culture, ATP measurement (CellTiter-Glo 2.0)
Experimental: as §1, with “Jeko-1” for “ZR-75-1”, “mantle cell lymphoma” for “breast cancer”, “50,000” for “5,000”, “0).” for “−1).”, “30 μM-3” for “20 μM-6”, “(%)=[(T3−C0)/(C3−C0)]×100” for “(%)=[(T6−C0)/(C6−C0)]×100”

[3] = test system: PTDSS2-KO A375 cell-subcutaneous transplanted model; experiment: Test Example 8: Antitumor activity on PTDSS2-KO A375 cell-subcutaneous transplanted model; format: in vivo, female BALB/c-nu/nu mice; conditions: orally, once daily for 10 successive days (QD×10), test end date
Excerpt: PTDSS2-KO A375 cells were transplanted to a right subcutaneous axillary portion of female BALB/c-nu/nu mice at a proportion of 1×10^6 cells/head, and when the tumor volume reached 100 to 300 mm^3 (estimated tumor volume (major axis×minor axis×minor axis/2)), mice were divided into groups of 6 each such that there was no difference between groups. The female BALB/c-nu/nu mice were purchased from CHARLES RIVER LABORATORIES JAPAN, INC. The compound of Example 42 was orally administered from the day of grouping, once daily for 10 successive days (QD×10). The tumor volume was measured until the next day of completion of the administration (test end date). 0.5% methylcellulose (MC) was administered to the vehicle control group as the vehicle.
The antitumor activity on PTDSS2-KO A375 cell-subcutaneous transplanted model of Test Example 8 was calculated by the following formula on each test end date. TGI %=(1−TVt/TVc)×100 • TGI: Tumor growth suppression rate • TVt: Group mean tumor volume of compound administration group on test end date • TVc: Group mean tumor volume of vehicle control group on test end date

PSS1 = PSS1 (Homo sapiens, UniProt P48651); experiment: biochemical
[4] = 10 mg/kg, QD × 13, test end date
[5] = 20 mg/kg, QD × 13, test end date
[6] = 40 mg/kg, QD × 13, test end date

| Structure (SMILES) | GI50 [1] | GI50 (HCT116 cells) | TGI (%) [2, 4] | TGI (%) [2, 5] | TGI (%) [2, 6] | further results |
| --- | --- | --- | --- | --- | --- | --- |
| CC(F)(F)CN1C(=O)c2[nH]nc(-c3cccc4[nH]c(=O)oc34)c2C1c1ccnc(Oc2ccc(F)cc2)n1 (stereo not drawn) [Example 73, 7-{5-(2,2-Difluoropropyl)-4-[2-(4-fluorophenoxy)pyrimidine-4-yl]-6-oxo-1,4,5,6-tetrahydropyrrolo[3,4-c]pyrazol-3-yl}-1,3-benzoxazol-2(3H)-one] | 890 nM | 19000 nM | – | – | – | – |
| O=C1c2[nH]nc(-c3cccc4[nH]c(=O)oc34)c2C(c2cc(OC3CCOCC3)ccc2F)N1CC(F)(F)F (stereo not drawn) [Example 9, 7-[4-{2-Fluoro-5-[(oxan-4-yl)oxy]phenyl}-6-oxo-5-(2,2,2-trifluoroethyl)-1,4,5,6-tetrahydropyrrolo[3,4-c]pyrazol-3-yl]-1,3-benzoxazol-2(3H)-one] | 700 nM | > 25000 nM | – | – | – | – |
| CC(F)(F)CN1C(=O)c2[nH]nc(-c3cccc4[nH]c(=O)sc34)c2C1c1ccc(Oc2ccc(OC(F)(F)F)cc2)cc1 (stereo not drawn) [Example 95, 7-[5-(2,2-Difluoropropyl)-6-oxo-4-{4-[4-(trifluoromethoxy)phenoxy]phenyl}-1,4,5,6-tetrahydropyrrolo[3,4-c]pyrazol-3-yl]-1,3-benzothiazol-2(3H)-one] | 6400 nM | 7300 nM | – | – | – | – |
| O=C1c2[nH]nc(-c3cccc4[nH]c(=O)oc34)c2C(c2ccc(F)cc2)N1CC(F)(F)F (single isomer, unassigned) [Example 8, 7-[4-(4-Fluorophenyl)-6-oxo-5-(2,2,2-trifluoroethyl)-1,4,5,6-tetrahydropyrrolo[3,4-c]pyrazol-3-yl]-1,3-benzoxazol-2(3H)-one (enantiomer)] | 1100 nM | > 25000 nM | – | – | – | – |
| O=C1c2[nH]nc(-c3cccc4[nH]c(=O)oc34)c2C(c2cc(Oc3ccccc3)ccc2F)N1Cc1ccccn1 (stereo not drawn) [Example 13, 7-{4-(2-Fluoro-5-phenoxyphenyl)-6-oxo-5-[(pyridin-2-yl)methyl]-1,4,5,6-tetrahydropyrrolo[3,4-c]pyrazol-3-yl}-1,3-benzoxazol-2(3H)-one] | 820 nM | > 25000 nM | – | – | – | – |
| CC(F)(F)CN1C(=O)c2[nH]nc(-c3cccc4[nH]c(=O)oc34)c2[C@@H]1c1ccc(Oc2cc(C(F)(F)F)cc(C(F)(F)F)c2)cc1 [Example 42, (−)-7-[4-{4-[3,5-bis(trifluoromethyl)phenoxy]phenyl}-5-(2,2-difluoropropyl)-6-oxo-1,4,5,6-tetrahydropyrrolo[3,4-c]pyrazol-3-yl]-1,3-benzoxazol-2(3H)-one] | 14 nM | > 25000 nM | 97% | 98% | 99% | GI50 (ZR-75-1 cells): 2900 nM; GI50 (NCI-N87 cells): 7.4 nM; GI50 (Jeko-1 cells): 417 nM; TGI (%) ([3]; Dose 3 mg/kg): 47%; TGI (%) ([3]; Dose 10 mg/kg): 100%; TGI (%) ([3]; Dose 30 mg/kg): 100%; TGI (%) ([3]; Dose 100 mg/kg): 100%; IC50 (PSS1): 200 nM |
| CC(F)(F)CN1C(=O)c2[nH]nc(-c3cccc4[nH]c(=O)oc34)c2C1c1ccc(Oc2ccc(OC(F)(F)F)cc2)cc1 (single isomer, unassigned; (-)) [Example 30, (−)-7-[5-(2,2-difluoropropyl)-6-oxo-4-{4-[4-(trifluoromethoxy)phenoxy]phenyl}-1,4,5,6,-tetrahydropyrrolo[3,4-c]pyrazol-3-yl]-1,3-benzoxazol-2-(3H)-one] | – | – | 26% | 50% | 83% | – |
| CC(F)(F)CN1C(=O)c2[nH]nc(-c3cccc4[nH]c(=O)oc34)c2C1c1cccc(Oc2ccc(F)cc2)c1 (single isomer, unassigned; (-)) [Example 53, (−)-7-{5-(2,2-Difluoropropyl)-4-[3-(4-fluorophenoxy)phenyl]-6-oxo-1,4,5,6-tetrahydropyrrolo[3,4-c]pyrazol-3-yl}-1,3-benzoxazol-2(3H)-one] | – | – | – | – | – | TGI (%) ([2]; 50 mg/kg, BID × 11, test end date): 41%; TGI (%) ([2]; 100 mg/kg, BID × 11, test end date): 83% |
| CC(F)(F)CN1C(=O)c2[nH]nc(-c3cccc4[nH]c(=O)oc34)c2C1c1ccc(Oc2ccc(OC(F)(F)F)c(C(F)(F)F)c2)cc1 (single isomer, unassigned; (-)) [Example 33, (−)-7-[5-(2,2-difluoropropyl)-6-oxo-4-{4-[4-(trifluoromethoxy)-3-(trifluoromethyl)phenoxy]phenyl}-1,4,5,6-tetrahydropyrrolo[3,4-c]pyrazol-3-yl]-1,3-benzoxazol-2(3H)-one] | 14 nM | – | 97% | 98% | 98% | – |
| CC(F)(F)CN1C(=O)c2[nH]nc(-c3cccc4[nH]c(=O)oc34)c2C1c1ccc(Oc2cc(C(F)(F)F)cc(C(F)(F)F)c2)cc1 (single isomer, unassigned; (+)) [(+)-7-[4-{4-[3,5-bis(trifluoromethyl)phenoxy]phenyl}-5-(2,2-difluoropropyl)-6-oxo-1,4,5,6-tetrahydropyrrolo[3,4-c]pyrazol-3-yl]-1,3-benzoxazol-2(3H)-one] | – | – | – | – | – | IC50 (PSS1): > 5000 nM |
